Measurements: patent US7615551B2, “Salicylate and gentisate salts of a piperazine compound” (Solvay Pharmaceuticals, B.V., priority 2005, dated 2009)

Experiments:
[1] = molecular target: D2 receptors (Homo sapiens, UniProt P14416); details: cited from earlier work
[2] = molecular target: 5HT reuptake (Homo sapiens, UniProt P31645); details: in therapeutic models; cited from earlier work
[3] = in vivo; cited from earlier work
[4] = system: catalepsy; details: rodents; cited from earlier work
[5] = Water solubility; assay type: physicochemical; details: excess solid salt in water, equilibrated at least 24 hours, filtered, HPLC-UV; resulting pH 5.8
Description: Water solubility was determined by combining an excess amount of solid salt with ˜2 mL D1 water in a 4 mL glass screw-cap vial and equilibrating for at least 24 hours on an end-over-end rotator. The resulting suspensions were filtered through a 0.22 μm PVDF filter and assayed by high pressure liquid chromatography with quantitation by UV against standards of compound 1.

Sequence of D2 receptors (P14416 whole entry): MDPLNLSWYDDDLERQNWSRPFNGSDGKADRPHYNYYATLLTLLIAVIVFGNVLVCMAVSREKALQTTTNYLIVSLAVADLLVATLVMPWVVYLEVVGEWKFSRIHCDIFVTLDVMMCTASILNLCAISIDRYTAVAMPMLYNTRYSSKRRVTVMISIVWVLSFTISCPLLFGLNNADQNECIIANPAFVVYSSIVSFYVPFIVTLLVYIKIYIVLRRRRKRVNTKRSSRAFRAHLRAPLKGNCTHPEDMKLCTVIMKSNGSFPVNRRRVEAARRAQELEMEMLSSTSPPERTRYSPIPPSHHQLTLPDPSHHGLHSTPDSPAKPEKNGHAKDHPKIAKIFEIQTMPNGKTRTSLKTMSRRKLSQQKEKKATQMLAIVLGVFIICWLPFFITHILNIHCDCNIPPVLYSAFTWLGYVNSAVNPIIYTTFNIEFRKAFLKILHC
Sequence of 5HT reuptake (P31645 whole entry): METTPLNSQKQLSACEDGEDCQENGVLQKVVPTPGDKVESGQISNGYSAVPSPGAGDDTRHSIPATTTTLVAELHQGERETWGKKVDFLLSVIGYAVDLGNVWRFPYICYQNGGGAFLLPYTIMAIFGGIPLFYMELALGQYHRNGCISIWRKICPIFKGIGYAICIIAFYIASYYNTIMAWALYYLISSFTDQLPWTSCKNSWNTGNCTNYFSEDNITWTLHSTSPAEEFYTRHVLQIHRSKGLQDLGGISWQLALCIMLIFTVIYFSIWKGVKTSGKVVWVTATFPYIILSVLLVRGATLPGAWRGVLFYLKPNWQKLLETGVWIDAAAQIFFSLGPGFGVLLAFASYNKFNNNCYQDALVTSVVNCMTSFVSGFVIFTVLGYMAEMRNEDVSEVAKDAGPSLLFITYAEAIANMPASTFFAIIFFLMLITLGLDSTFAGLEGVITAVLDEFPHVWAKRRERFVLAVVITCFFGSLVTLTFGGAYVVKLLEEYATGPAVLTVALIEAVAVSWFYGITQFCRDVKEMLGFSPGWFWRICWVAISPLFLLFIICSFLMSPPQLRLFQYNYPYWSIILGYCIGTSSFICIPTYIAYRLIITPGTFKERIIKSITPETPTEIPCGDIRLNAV

SMILES | activity at D2 receptors [1] | activity against 5HT reuptake [2] | activity in therapeutic models sensitive to antipsychotics, antidepressants, anxiolytics, Parkinson's disease [3] | propensity to induce catalepsy [4] | water solubility [5]
CC1Oc2c(cccc2N2CCN(CCCc3c[nH]c4ccc(F)cc34)CC2)NC1=O (stereo not drawn) [compound 1, 8-{4-[3-(5-fluoro-1H-indol-3-yl)-propyl]-piperazin-1-yl}-2-methyl-4H-benzo[1,4]oxazin-3-one] | antagonistic activity | inhibitory activity | active | low propensity to induce catalepsy | 
CC1Oc2c(cccc2N2CCN(CCCc3c[nH]c4ccc(F)cc34)CC2)NC1=O (stereo not drawn) [compound 2] |  |  |  |  | 1600 µg/mL (freebase equivalent)
CC1Oc2c(cccc2N2CCN(CCCc3c[nH]c4ccc(F)cc34)CC2)NC1=O (stereo not drawn) [compound 3] |  |  |  |  | 500 µg/mL (freebase equivalent)
